According to patent US8609653B2, “Azaindole compounds and methods for treating HIV” (priority 2011, dated 2013):

What follows are compounds tested on HIV (assay: MT4 assay: antiviral HIV activity in MT-4 cells). Settings: Human immunodeficiency virus 1, MT4, 96 h, read-out: HIV MT4 Assay IC50 (μM), HTLV-1 transformed cell line MT-4; read-out 96 hours later with cell titer glo; 10 point dose response.
Assay type: cell-based
Protocol: Antiviral HIV activity and cytotoxicity values for compounds of the invention from Table 1 were measured in parallel in the HTLV-1 transformed cell line MT-4 based on the method previously described (Hazen et al., 2007, In vitro antiviral activity of the novel, tyrosyl-based human immunodeficiency virus (HIV) type 1 protease inhibitor brecanavir (GW640385) in combination with other antiretrovirals and against a panel of protease inhibitor-resistant HIV (Hazen et al., “In vitro antiviral activity of the novel, tyrosyl-based human immunodeficiency virus (HIV) type 1 protease inhibitor brecanavir (GW640385) in combination with other antiretrovirals and against a panel of protease inhibitor-resistant HIV”, Antimicrob. Agents Chemother. 2007, 51: 3147-3154; and Pauwels et al., “Sensitive and rapid assay on MT-4 cells for the detection of antiviral compounds against the AIDS virus”, J. of Virological Methods 1987, 16: 171-185).
Luciferase activity was measured 96 hours later by adding a cell titer glo (Promega, Madison, Wis.). Percent inhibition of cell protection data was plotted relative to no compound control. Under the same condition, cytotoxicity of the compounds was determined using cell titer Glo™ (Promega, Madison, Wis.). IC50s were determined from a 10 point dose response curve using 3-4-fold serial dilution for each compound, which spans a concentration range>1000 fold.
These values are plotted against the molar compound concentrations using the standard four parameter logistic equation: y=((Vmax*x^n)/(K^n+x^n))+Y2
Y2=minimum y n=slope factor
Vmax=maximum y x=compound concentration [M]
With `Cc1ccc(-c2c(C(OC(C)(C)C)C(=O)O)c(C)nc3c2ccn3Cc2ccc(Cl)cc2F)cc1` (centres unmarked) [Example 23, 2-(tert-butoxy)-2-(1-(4-chloro-2-fluorobenzyl)-6-methyl-4-(p-tolyl)-1H-pyrrolo[2,3-b]pyridin-5-yl)acetic acid] the IC50 was 0.27 µM.
For `Cc1ccc(-c2c(C(OC(C)(C)C)C(=O)O)c(C)nc3c2ccn3Cc2ccc(F)cc2F)cc1` (centres unmarked) [Example 24, 2-(tert-butoxy)-2-(1-(2,4-difluorobenzyl)-6-methyl-4-(p-tolyl)-1H-pyrrolo[2,3-b]pyridin-5-yl)acetic acid], the IC50 was 0.125 µM.
Work on `Cc1ccc(-c2c(C(OC(C)(C)C)C(=O)O)c(C)nc3c2ccn3Cc2ccc(F)c(C)c2)cc1` (centres unmarked) [Example 25, 2-(tert-butoxy)-2-(1-(4-fluoro-3-methylbenzyl)-6-methyl-4-(p-tolyl)-1H-pyrrolo[2,3-b]pyridin-5-yl)acetic acid] yielded an IC50 of 0.14 µM.
`Cc1ccc(-c2c(C(OC(C)(C)C)C(=O)O)c(C)nc3c2ccn3Cc2c(F)cc(F)cc2F)cc1` (centres unmarked) [Example 26, 2-(tert-butoxy)-2-(6-methyl-4-(p-tolyl)-1-(2,4,6-trifluorobenzyl)-1H-pyrrolo[2,3-b]pyridin-5-yl)acetic acid] showed an IC50 of 0.12 µM.
With `Cc1nc2c(ccn2Cc2ccc(F)cc2)c(-c2ccc3c(c2)CCCO3)c1C(OC(C)(C)C)C(=O)O` (centres unmarked) [Example 27, 2-(tert-butoxy)-2-(4-(chroman-6-yl)-1-(4-fluorobenzyl)-6-methyl-1H-pyrrolo[2,3-b]pyridin-5-yl)acetic acid] the IC50 was 0.08 µM.
Work on `Cc1nc2c(ccn2Cc2ccc(F)c(F)c2)c(-c2ccc3c(c2)CCCO3)c1[C@@H](OC(C)(C)C)C(=O)O` [Example 28, (R)-2-(tert-butoxy)-2-(4-(chroman-6-yl)-1-(3,4-difluorobenzyl)-6-methyl-1H-pyrrolo[2,3-b]pyridin-5-yl)acetic acid] yielded an IC50 of 6.56 µM.
Work on `Cc1nc2c(ccn2Cc2ccc(F)c(F)c2)c(-c2ccc3c(c2)CCCO3)c1[C@H](OC(C)(C)C)C(=O)O` [Example 29, (S)-2-(tert-butoxy)-2-(4-(chroman-6-yl)-1-(3,4-difluorobenzyl)-6-methyl-1H-pyrrolo[2,3-b]pyridin-5-yl)acetic acid] yielded an IC50 of 0.024 µM.
In the case of `Cc1cc(Cn2ccc3c(-c4ccc5c(c4)CCCO5)c(C(OC(C)(C)C)C(=O)O)c(C)nc32)ccc1F` (centres unmarked) [Example 30, 2-(tert-butoxy)-2-(4-(chroman-6-yl)-1-(4-fluoro-3-methylbenzyl)-6-methyl-1H-pyrrolo[2,3-b]pyridin-5-yl)acetic acid], the IC50 is reported as 0.07 µM.
Work on `Cc1nc2c(ccn2Cc2ccc(F)cc2Cl)c(-c2ccc3c(c2)CCCO3)c1C(OC(C)(C)C)C(=O)O` (centres unmarked) [Example 31, 2-(tert-butoxy)-2-(1-(2-chloro-4-fluorobenzyl)-4-(chroman-6-yl)-6-methyl-1H-pyrrolo[2,3-b]pyridin-5-yl)acetic acid] yielded an IC50 of 0.04 µM.
Compound `Cc1nc2c(ccn2Cc2cc(F)c(F)c(F)c2)c(-c2ccc3c(c2)CCCO3)c1C(OC(C)(C)C)C(=O)O` (centres unmarked) [Example 32, 2-(tert-butoxy)-2-(4-(chroman-6-yl)-6-methyl-1-(3,4,5-trifluorobenzyl)-1H-pyrrolo[2,3-b]pyridin-5-yl)acetic acid] has an IC50 of 0.1 µM.
`Cc1nc2c(ccn2Cc2cc(F)ccc2F)c(-c2ccc3c(c2)CCCO3)c1C(OC(C)(C)C)C(=O)O` (centres unmarked) [Example 33, 2-(tert-butoxy)-2-(4-(chroman-6-yl)-1-(2,5-difluorobenzyl)-6-methyl-1H-pyrrolo[2,3-b]pyridin-5-yl)acetic acid] gave an IC50 of 0.096 µM.
`Cc1nc2c(ccn2Cc2cccc(F)c2F)c(-c2ccc3c(c2)CCCO3)c1C(OC(C)(C)C)C(=O)O` (centres unmarked) [Example 34, 2-(tert-butoxy)-2-(4-(chroman-6-yl)-1-(2,3-difluorobenzyl)-6-methyl-1H-pyrrolo[2,3-b]pyridin-5-yl)acetic acid] was tested, and the IC50 was 0.06 µM.
`Cc1ccc(Cn2ccc3c(-c4ccc5c(c4)CCCO5)c(C(OC(C)(C)C)C(=O)O)c(C)nc32)cc1F` (centres unmarked) [Example 35, 2-(tert-butoxy)-2-(4-(chroman-6-yl)-1-(3-fluoro-4-methylbenzyl)-6-methyl-1H-pyrrolo[2,3-b]pyridin-5-yl)acetic acid] was tested, and the IC50 was 0.42 µM.
Work on `Cc1ccc(-c2c([C@@H](OC(C)(C)C)C(=O)O)c(C)nc3c2ccn3Cc2ccc(F)cc2F)cc1` [Example 36, (R)-2-(tert-butoxy)-2-(1-(2,4-difluorobenzyl)-6-methyl-4-(p-tolyl)-1H-pyrrolo[2,3-b]pyridin-5-yl)acetic acid] yielded an IC50 of 50 µM.
Compound `Cc1ccc(-c2c([C@H](OC(C)(C)C)C(=O)O)c(C)nc3c2ccn3Cc2ccc(F)cc2F)cc1` [Example 37, (S)-2-(tert-butoxy)-2-(1-(2,4-difluorobenzyl)-6-methyl-4-(p-tolyl)-1H-pyrrolo[2,3-b]pyridin-5-yl)acetic acid] has an IC50 of 0.07 µM.
For `COc1ccc(Cn2ccc3c(-c4ccc5c(c4)CCCO5)c(C(OC(C)(C)C)C(=O)O)c(C)nc32)cc1` (centres unmarked) [Example 38, 2-(tert-butoxy)-2-(4-(chroman-6-yl)-1-(4-methoxybenzyl)-6-methyl-1H-pyrrolo[2,3-b]pyridin-5-yl)acetic acid], the IC50 was 0.12 µM.
`Cc1nc2c(ccn2Cc2ccccc2F)c(-c2ccc3c(c2)CCCO3)c1C(OC(C)(C)C)C(=O)O` (centres unmarked) [Example 39, 2-(tert-butoxy)-2-(4-(chroman-6-yl)-1-(2-fluorobenzyl)-6-methyl-1H-pyrrolo[2,3-b]pyridin-5-yl)acetic acid] was tested, and the IC50 was 0.068 µM.
In the case of `Cc1nc2c(ccn2Cc2cccc(Cl)c2F)c(-c2ccc3c(c2)CCCO3)c1C(OC(C)(C)C)C(=O)O` (centres unmarked) [Example 40, 2-(tert-butoxy)-2-(1-(3-chloro-2-fluorobenzyl)-4-(chroman-6-yl)-6-methyl-1H-pyrrolo[2,3-b]pyridin-5-yl)acetic acid], the IC50 is reported as 0.125 µM.
Compound `Cc1nc2c(ccn2Cc2ccc(C(F)(F)F)o2)c(-c2ccc3c(c2)CCCO3)c1C(OC(C)(C)C)C(=O)O` (centres unmarked) [Example 41] has an IC50 of 0.1 µM.
Compound `Cc1nc2c(ccn2CCc2ccc(F)cc2)c(-c2ccc3c(c2)CCCO3)c1C(OC(C)(C)C)C(=O)O` (centres unmarked) [Example 42, 2-(tert-butoxy)-2-(4-(chroman-6-yl)-1-(4-fluorophenethyl)-6-methyl-1H-pyrrolo[2,3-b]pyridin-5-yl)acetic acid] has an IC50 of 0.58 µM.
Compound `Cc1nc2c(ccn2Cc2ccccc2)c(-c2ccc3c(c2)CCCO3)c1C(OC(C)(C)C)C(=O)O` (centres unmarked) [Example 43, 2-(1-benzyl-4-(chroman-6-yl)-6-methyl-1H-pyrrolo[2,3-b]pyridin-5-yl)-2-(tert-butoxy)acetic acid] has an IC50 of 0.084 µM.
`Cc1nc2c(ccn2Cc2c(F)cc(F)cc2F)c(-c2ccc3c(c2)CCCO3)c1C(OC(C)(C)C)C(=O)O` (centres unmarked) [Example 44, 2-(tert-butoxy)-2-(4-(chroman-6-yl)-6-methyl-1-(2,4,6-trifluorobenzyl)-1H-pyrrolo[2,3-b]pyridin-5-yl)acetic acid] gave an IC50 of 0.053 µM.
In the case of `COc1ccc(Cn2ccc3c(-c4ccc5c(c4)CCCO5)c(C(OC(C)(C)C)C(=O)O)c(C)nc32)cc1F` (centres unmarked) [Example 45, 2-(tert-butoxy)-2-(4-(chroman-6-yl)-1-(3-fluoro-4-methoxybenzyl)-6-methyl-1H-pyrrolo[2,3-b]pyridin-5-yl)acetic acid], the IC50 is reported as 0.055 µM.
In the case of `COc1ccc(F)c(F)c1Cn1ccc2c(-c3ccc(C)cc3)c(C(OC(C)(C)C)C(=O)O)c(C)nc21` (centres unmarked) [Example 46, 2-(tert-butoxy)-2-(1-(2,3-difluoro-6-methoxybenzyl)-6-methyl-4-(p-tolyl)-1H-pyrrolo[2,3-b]pyridin-5-yl)acetic acid], the IC50 is reported as 0.1 µM.
For `Cc1nc2c(ccn2Cc2ccc(F)cc2Cl)c(-c2ccc3c(c2)CCCO3)c1[C@@H](OC(C)(C)C)C(=O)O` [Example 47, (R)-2-(tert-butoxy)-2-(1-(2-chloro-4-fluorobenzyl)-4-(chroman-6-yl)-6-methyl-1H-pyrrolo[2,3-b]pyridin-5-yl)acetic acid], the IC50 was 50 µM.
Compound `Cc1nc2c(ccn2Cc2ccc(F)cc2Cl)c(-c2ccc3c(c2)CCCO3)c1[C@H](OC(C)(C)C)C(=O)O` [Example 48, (S)-2-(tert-butoxy)-2-(1-(2-chloro-4-fluorobenzyl)-4-(chroman-6-yl)-6-methyl-1H-pyrrolo[2,3-b]pyridin-5-yl)acetic acid] has an IC50 of 0.03 µM.
`Cc1ccc(-c2c(C(OC(C)(C)C)C(=O)O)c(C)nc3c2ccn3Cc2c(Cl)ccc(F)c2F)cc1` (centres unmarked) [Example 49, 2-(tert-butoxy)-2-(1-(6-chloro-2,3-difluorobenzyl)-6-methyl-4-(p-tolyl)-1H-pyrrolo[2,3-b]pyridin-5-yl)acetic acid] was tested, and the IC50 was 0.123 µM.
Compound `Cc1nc2c(ccn2Cc2c(Cl)cccc2Cl)c(-c2ccc3c(c2)CCCO3)c1C(OC(C)(C)C)C(=O)O` (centres unmarked) [Example 50, 2-(tert-butoxy)-2-(4-(chroman-6-yl)-1-(2,6-dichlorobenzyl)-6-methyl-1H-pyrrolo[2,3-b]pyridin-5-yl)acetic acid] has an IC50 of 0.035 µM.
Compound `Cc1nc2c(ccn2Cc2c(F)cccc2F)c(-c2ccc3c(c2)CCCO3)c1C(OC(C)(C)C)C(=O)O` (centres unmarked) [Example 51, 2-(tert-butoxy)-2-(4-(chroman-6-yl)-1-(2,6-difluorobenzyl)-6-methyl-1H-pyrrolo[2,3-b]pyridin-5-yl)acetic acid] has an IC50 of 0.09 µM.
